Assay results: patent US9713648B2, “Weekly dosing regimens for anti-CD30 VC-PAB-MMAE antibody drug-conjugates” (Seattle Genetics, Inc., priority 2009, dated 2017)

How the values were obtained:
Format in all cases: in vivo, human
[1] = tested on: sALCL; experiment: Phase 1 weekly dosing study: response rate in sALCL patients; details: sALCL patients (4/5), weekly 0.4-1.4 mg/kg
Method: (§1) A multicenter, phase 1, weekly dosing, dose escalation study was conducted in pts with refractory or relapsed HL or systemicALCL. The cAC10-MC-vc-PAB-MMAE antibody drug conjugate was administered weekly at doses of 0.4-1.4 mg/kg (2-hr IV infusions). Patients with […] or better after two 21-day cycles (6 doses) were eligible to continue treatment with the antibody drug conjugate.
(§2) Results: In 34 patients, median age was 34 yrs (range 13-82). Patients received a median of 5 prior therapies; 62% received an autologous SCT. MTD was exceeded at 1.4 mg/kg.

[2] = tested on: refractory or relapsed HL or systemicALCL; experiment: Phase 1 weekly dosing, dose escalation study: best clinical response, all evaluable patients; details: for Best Clinical Response: CR / Best Clinical Response: PD / Best Clinical Response: PR / Best Clinical Response: SD: number of patients
Method: as §1, §2

[3] = tested on: HL; experiment: Phase 1 weekly dosing study: response rate in HL patients; details: weekly 0.4-1.4 mg/kg
Method: as §1, §2

[4] = Phase 1 weekly dosing study: tolerability, adverse events, MTD/DLT
Method: as §1
The grade 4 events were neutropenia (1 subject), and hyperglycemia (1). The grade 3 events were neutropenia (3), diarrhea (1), paresthesia (1), vomiting (1), and leucopenia (1). The grade 2 or lower adverse events were nausea (9), fatigue (8), peripheral neuropathy (6), neutropenia (2), dizziness (4), hyperglycemia (3), and paresthesia (3). The dose limiting toxicity was at 1.4 mg/kg.

[5] = Phase 1 weekly dosing study: exposure (AUC); details: weekly doses of 0.4-1.4 mg/kg
Method: as §1, §2

[6] = Total of all dose groups 0.4-1.4 mg/kg, N=27
[7] = dose group 0.6 mg/kg weekly, N=3
[8] = dose group 1.0 mg/kg weekly, N=6
[9] = dose group 1.2 mg/kg weekly, N=5
[10] = dose group 1.4 mg/kg weekly, N=3
[11] = number of subjects among 34 treated patients

cAC10-MC-vc-PAB-MMAE: chimeric AC10 antibody conjugated to the drug MMAE through a MC-vc-PAB linker; anti-CD30 antibody-drug conjugate
Complete Response [1]: 80% (4/5) | Overall Response Rate (CR + PR) [1]: 80% (4/5) | observed time to response ([2]; 1 mg/kg dose, weekly): approximately 8 wks | Complete Response ([2]; All Patients (10/27), weekly 0.4-1.4 mg/kg): 37% (10/27) | Overall Response Rate (CR + PR) ([2]; All Patients (13/27), weekly 0.4-1.4 mg/kg): 48% (13/27) | Tumor Reductions ([2]; All Patients (22/27), weekly 0.4-1.4 mg/kg): 81% (22/27) | CRs observed ([2]; at higher doses): Multiple | Best Clinical Response: CR [2, 6]: 10 ^ | Best Clinical Response: PD [2, 6]: 3 | Best Clinical Response: PR [2, 6]: 3 | Best Clinical Response: SD [2, 6]: 22 | Best Clinical Response: SD ([2]; dose group 0.4 mg/kg weekly, N=4, includes 1 patient with ALCL): 4^+ | Best Clinical Response: PD [2, 7]: 1 | Best Clinical Response: PR [2, 7]: 1 | Best Clinical Response: SD [2, 7]: 1 | Best Clinical Response: PD ([2]; dose group 0.8 mg/kg weekly, N=6): 1 | Best Clinical Response: SD ([2]; dose group 0.8 mg/kg weekly, N=6, 1 pediatric patient): 1^P | Best Clinical Response: CR ([2]; dose group 0.8 mg/kg weekly, N=6, includes 2 patients with ALCL): 4^++ | Best Clinical Response: PR [2, 8]: 1 | Best Clinical Response: SD [2, 8]: 1 | Best Clinical Response: CR ([2]; dose group 1.0 mg/kg weekly, N=6, includes 2 patients with ALCL): 4^++ | Best Clinical Response: PD [2, 9]: 1 | Best Clinical Response: PR [2, 9]: 1 | Best Clinical Response: SD ([2]; dose group 1.2 mg/kg weekly, N=5, includes 1 pediatric patient): 3^P | Best Clinical Response: CR [2, 10]: 2^ | Best Clinical Response: SD [2, 10]: 1 | time within which multiple complete responses were observed ([2]; phase I study, weekly regimen): ≤ 8 weeks | Complete Response ([3]; HL Patients (6/22)): 27% (6/22) | Overall Response Rate (CR + PR) ([3]; HL Patients (9/22)): 41% (9/22) | grade 5 events ([4]; 34 treated patients): no grade 5 events | tolerability ([4]; 34 treated patients): generally well tolerated | grade 2 or lower adverse events: dizziness [4, 11]: 4 | grade 2 or lower adverse events: fatigue [4, 11]: 8 | grade 2 or lower adverse events: hyperglycemia [4, 11]: 3 | grade 2 or lower adverse events: nausea [4, 11]: 9 | grade 2 or lower adverse events: neutropenia [4, 11]: 2 | grade 2 or lower adverse events: paresthesia [4, 11]: 3 | grade 2 or lower adverse events: peripheral neuropathy [4, 11]: 6 | grade 3 events: diarrhea [4, 11]: 1 | grade 3 events: leucopenia [4, 11]: 1 | grade 3 events: neutropenia [4, 11]: 3 | grade 3 events: paresthesia [4, 11]: 1 | grade 3 events: vomiting [4, 11]: 1 | grade 4 events: hyperglycemia [4, 11]: 1 | grade 4 events: neutropenia [4, 11]: 1 subject | dose limiting toxicity (dose at which it occurred) ([4]; weekly dosing): 1.4 mg/kg | MTD (exceeded at) ([4]; weekly dosing, 2-hr IV infusions, 34 patients): < 1.4 mg/kg | Exposure (AUC) [5]: increased relative to dose level
